Kd, haemagglutination activity on rabbit erythrocytes, monomer mutant against the dimer (times less than the dimer) and stoichiometry N data for 4 molecules are collected here from article PMC4913266, “Crystal structure of MytiLec, a galactose-binding lectin from the mussel Mytilus galloprovincialis with cytotoxicity against certain cancer cell types” (Scientific Reports, 2016).

Test [1] has as its target T1, MytiLec (Mytilus galloprovincialis, UniProt B3EWR1, T39A).
T1 construct: full-length from codon-optimised synthetic gene, initial Thr changed to Ala; N-terminal His6 tag cut by thrombin, product begins GSHMATF; E. coli BL21(DE3) RILP; homodimer 34 kDa
Nature of the test: ITC, single-site model; crystal structure […] Å. Format: binding. The settings on record: 10 mM HEPES pH 7.4, 100 mM NaCl, 298 K; averaged over three sites per monomer (one type of independent site); crystal shows alpha anomer at all six sites of the dimer.

Test [2] concerns the target T1, MytiLec. Nature of the test: ITC, single-site model. The class given is binding. Conditions: 10 mM HEPES pH 7.4, 100 mM NaCl, 298 K; averaged over three sites per monomer (one type of independent site).
Test [3] deals with MytiLec(F93DF94S) (Mytilus galloprovincialis).
For test [4], the target named is Recombinant MytiLec (Mytilus galloprovincialis). Put plainly: AUC; sedimentation velocity, 50 mM potassium phosphate pH 7.4, 0.1 M NaCl, 293 K, 50,000 rpm, absorbance at 280 nm, c(s) converted to c(M); wild-type protein.

pKd: −log10 of the molar value.

T1 sequence (B3EWR1 39-187 T39A): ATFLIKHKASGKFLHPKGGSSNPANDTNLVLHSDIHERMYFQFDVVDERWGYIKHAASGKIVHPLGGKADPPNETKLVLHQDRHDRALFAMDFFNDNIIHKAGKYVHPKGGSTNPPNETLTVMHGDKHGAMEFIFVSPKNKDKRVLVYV

In turn, `CC(=O)N[C@H]1C(O)O[C@H](CO)[C@H](O)[C@@H]1O` (stereo partly shown) [GalNAc] gave a pKd on MytiLec [1] of 3.89.

For `OC[C@H]1OC(O)[C@H](O)[C@@H](O)[C@H]1O` (stereo partly shown) [galactose], the pKd at MytiLec [2] was 3.70.

Molecule MytiLec(F93DF94S) (natural protein) displayed a haemagglutination activity on rabbit erythrocytes, monomer mutant against the dimer (times less than the dimer) in test [3] of 10.

In the case of Recombinant MytiLec (natural protein), in test [4], the stoichiometry N was determined as 2.
